Data on one compound can be found in ChEMBL document CHEMBL6092203, “Discovery of Novel PROTAC-Based HPK1 Degraders with High Potency and Selectivity for Cancer Immunotherapy” (J Med Chem, 2024).

pIC50: −log10 of the molar value. The source made the active and inactive calls. No cut-off for these calls is given here.

The nature of series [1]: Tmax in male Sprague-Dawley rat at 2 mg/kg/day, po measured at day 1. The class given is ADME, organism-based. Conditions: in vivo, time 1 day.
Series [2] concerns MC-38. In words: Synergistic antitumor activity against mouse MC38 cells implanted in C57BL/6J mouse assessed as reduction in tumor volume at 100 mg/kg, po QD administered for 3 to 4 weeks in presence of 5 mg/kg anti-PD1 and measured twice a week (reference value: 1549.22 +/- 217.92 mm3). The format is functional. The note with it: time 3-4 weeks.
The next series has as its target T1, Cytochrome P450 1A2 (Homo sapiens, UniProt P05177).
T1 sequence (P05177 whole entry): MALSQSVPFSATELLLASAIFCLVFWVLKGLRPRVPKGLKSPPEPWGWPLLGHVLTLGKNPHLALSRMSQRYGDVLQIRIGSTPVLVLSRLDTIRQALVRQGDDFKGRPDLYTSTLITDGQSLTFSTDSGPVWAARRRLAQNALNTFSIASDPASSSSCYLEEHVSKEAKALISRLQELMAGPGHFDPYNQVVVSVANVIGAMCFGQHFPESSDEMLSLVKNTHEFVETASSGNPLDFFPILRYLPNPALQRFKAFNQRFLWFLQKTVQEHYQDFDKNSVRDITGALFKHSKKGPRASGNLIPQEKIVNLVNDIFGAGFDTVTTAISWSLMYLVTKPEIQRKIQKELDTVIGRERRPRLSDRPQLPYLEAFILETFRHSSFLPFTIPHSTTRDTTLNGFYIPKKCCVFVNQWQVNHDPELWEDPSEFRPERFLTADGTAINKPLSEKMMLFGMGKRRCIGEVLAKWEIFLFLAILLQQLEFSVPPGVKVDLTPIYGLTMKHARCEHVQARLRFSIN
In words: Inhibition of CYP1A2 in human liver microsomes using phenacetin as substrate in presence of NADPH. The format is ADME, Microsome.

Series [3] concerns the target T2, Protein cereblon/Mitogen-activated protein kinase kinase kinase kinase 1 (Homo sapiens, UniProt Q92918+Q96SW2). Briefly: PROTAC activity at CRBN/HPK1 in human Jurkat cells assessed as HPK1 degradation at 0.01 uM pretreated with MG132 for 4 hrs followed by compound addition and measured after 24 hrs by Western blotting analysis. The class given is cell-based.
Series [4] is described as follows: in vivo. The note with it: C57BL/6J, mouse, po, 10 mg/kg.
A short description of series [5]: Drug metabolism in rat hepatocytes assessed as phase 2 metabolites formation at 10 uM incubated for 120 mins by UHPLC-UV/MS/MS method. The format is ADME, cell-based, Hepatocyte. The note with it: 2 h.
Series [6] can be described thus: in vivo. Conditions: male, Sprague-Dawley, rat, po, 30 mg/kg.
The target in series [7] is T2, Protein cereblon/Mitogen-activated protein kinase kinase kinase kinase 1. In words: PROTAC activity at CRBN/HPK1 in human Jurkat cells assessed as HPK1 degradation at 1 uM pretreated with MLN4924 for 4 hrs followed by compound addition and measured after 24 hrs by Western blotting analysis. The class given is cell-based.
Series [8] concerns MC-38. Briefly: Antitumor activity against mouse MC38 cells implanted in C57BL/6J mouse assessed as tumor weight inhibition rate at 1 mg/kg, po BID measured after 4 weeks. The class given is functional. Set-up: scale not given: the % may be the effect or the level left.
Series [9] is described as follows: Tmax in male Sprague-Dawley rat at 30 mg/kg/day, po measured at day 1. The class given is ADME, organism-based. The note with it: in vivo, time 1 day.
Series [10] in a line: AUCinfinity in Sprague-Dawley rat at 2 mg/kg, iv measured upto 24 hrs by LC-MS analysis. The class given is ADME, organism-based. The note with it: in vivo.
Series [11] is described as follows: Tmax in female Sprague-Dawley rat at 100 mg/kg/day, po measured at day 1. The format is ADME, organism-based. Conditions: in vivo, time 1 day.
Series [12] can be described thus: Volume of distribution at steady state in Sprague-Dawley rat at 2 mg/kg, iv measured upto 24 hrs by LC-MS analysis. The format is ADME, organism-based. Conditions: in vivo, read-out: Vdss.
A short description of series [13]: in vivo. Conditions: female, Sprague-Dawley, rat, po, 30 mg/kg.
A short description of series [14]: Plasma protein binding in dog at 10 uM incubated for 6 hrs by equilibrium dialysis based LC-MS/MS method. The class given is ADME, cell-free, Canis lupus familiaris. The note with it: read-out: PPB (converted).
The next series concerns the target T3, Cytochrome P450 2C8 (Homo sapiens, UniProt P10632).
T3 sequence (P10632 whole entry): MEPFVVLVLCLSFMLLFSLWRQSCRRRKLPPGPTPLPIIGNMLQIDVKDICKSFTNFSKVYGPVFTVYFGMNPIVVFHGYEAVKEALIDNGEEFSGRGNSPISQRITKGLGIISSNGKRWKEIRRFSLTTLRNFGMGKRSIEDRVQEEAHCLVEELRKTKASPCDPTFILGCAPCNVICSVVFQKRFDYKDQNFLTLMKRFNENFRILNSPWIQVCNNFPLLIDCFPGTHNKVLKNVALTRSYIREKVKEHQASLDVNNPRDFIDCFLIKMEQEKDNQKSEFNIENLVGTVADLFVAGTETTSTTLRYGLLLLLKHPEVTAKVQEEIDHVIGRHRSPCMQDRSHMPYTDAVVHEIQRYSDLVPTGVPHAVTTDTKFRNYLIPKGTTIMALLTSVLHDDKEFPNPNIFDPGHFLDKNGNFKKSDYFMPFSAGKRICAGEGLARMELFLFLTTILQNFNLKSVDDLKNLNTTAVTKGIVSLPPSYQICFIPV
In words: Inhibition of CYP2C8 in human liver microsomes using amodiaquine as substrate in presence of NADPH. The format is ADME, Microsome.

Series [15] has as its target T2, Protein cereblon/Mitogen-activated protein kinase kinase kinase kinase 1. Briefly: PROTAC activity at CRBN/HPK1 in human Jurkat cells assessed as HPK1 degradation at 1 uM measured after 24 hrs by Western blotting analysis. The format is cell-based.
A short description of series [16]: in vivo. The note with it: male, Sprague-Dawley, rat, po, 100 mg/kg.
Series [17] is described as follows: Metabolic stability in monkey liver microsomes assessed as intrinsic clearance at 1 uM incubated for 45 mins by LC-MS/MS method. The class given is ADME, Macaca mulatta, Microsome. Conditions: rhesus monkey, read-out: CLH.
Series [18] can be described thus: Half-life in Sprague-Dawley rat at 2 mg/kg, iv measured upto 24 hrs by LC-MS analysis. The note with it: in vivo.
The target in series [19] is T2, Protein cereblon/Mitogen-activated protein kinase kinase kinase kinase 1. Briefly: PROTAC activity at CRBN/HPK1 in human Jurkat cells assessed as HPK1 degradation at 300 nM measured after 24 hrs by Western blotting analysis. The format is cell-based.

T2 sequence (Q92918 whole entry, looked up): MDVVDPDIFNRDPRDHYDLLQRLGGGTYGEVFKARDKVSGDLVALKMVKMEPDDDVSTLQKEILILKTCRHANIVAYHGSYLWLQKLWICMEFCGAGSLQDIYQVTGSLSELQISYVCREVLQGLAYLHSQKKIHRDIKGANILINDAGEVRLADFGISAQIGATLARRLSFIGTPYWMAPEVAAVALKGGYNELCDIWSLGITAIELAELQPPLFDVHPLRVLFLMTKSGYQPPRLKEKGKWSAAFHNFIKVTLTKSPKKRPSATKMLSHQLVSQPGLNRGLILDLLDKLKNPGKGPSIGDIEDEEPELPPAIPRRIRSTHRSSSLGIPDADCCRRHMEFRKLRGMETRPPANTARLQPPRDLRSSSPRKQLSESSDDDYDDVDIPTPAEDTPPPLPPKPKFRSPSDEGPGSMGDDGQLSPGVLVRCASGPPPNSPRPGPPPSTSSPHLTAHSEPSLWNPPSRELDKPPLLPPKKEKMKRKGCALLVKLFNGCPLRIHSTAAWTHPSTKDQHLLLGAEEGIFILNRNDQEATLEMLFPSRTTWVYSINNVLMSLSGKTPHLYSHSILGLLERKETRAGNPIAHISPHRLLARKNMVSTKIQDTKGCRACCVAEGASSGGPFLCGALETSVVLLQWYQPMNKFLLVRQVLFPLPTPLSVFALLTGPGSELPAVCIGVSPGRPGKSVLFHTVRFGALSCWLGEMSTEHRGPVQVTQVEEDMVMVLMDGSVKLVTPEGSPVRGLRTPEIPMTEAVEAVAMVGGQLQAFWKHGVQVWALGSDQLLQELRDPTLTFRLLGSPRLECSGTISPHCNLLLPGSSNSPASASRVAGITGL
T2 sequence (Q96SW2 whole entry, looked up): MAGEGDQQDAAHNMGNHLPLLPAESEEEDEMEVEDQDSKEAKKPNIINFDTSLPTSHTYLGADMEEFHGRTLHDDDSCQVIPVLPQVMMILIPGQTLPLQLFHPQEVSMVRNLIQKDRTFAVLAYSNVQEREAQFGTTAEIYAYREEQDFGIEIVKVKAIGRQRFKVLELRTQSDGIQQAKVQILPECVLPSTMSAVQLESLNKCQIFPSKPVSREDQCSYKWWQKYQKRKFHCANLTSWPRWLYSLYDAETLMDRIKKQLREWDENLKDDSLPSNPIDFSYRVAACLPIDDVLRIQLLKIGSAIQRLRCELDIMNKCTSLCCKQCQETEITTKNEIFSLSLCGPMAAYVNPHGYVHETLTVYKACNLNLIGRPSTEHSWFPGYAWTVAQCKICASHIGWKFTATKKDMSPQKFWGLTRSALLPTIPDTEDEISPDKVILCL

As to `O=C1CCN(c2cc(C(=O)N3CCC(CC4CCN(c5ccc(-c6cnc7[nH]cc(-c8cnn(CC(F)(F)F)c8)c7n6)cn5)CC4)CC3)ccc2Cl)C(=O)N1`, the Tmax came to 8.67 h in series [1], 8 h in [9] and 8 h in [11]. For the same compound, the results for the Activity with MC-38 [2] and with MC-38 [8] were 139.92 mm3 and 12.77%, respectively. In addition, the pIC50 at Cytochrome P450 1A2 and on Cytochrome P450 2C8 was less than 5.00 throughout. Also, the result in series [3] and in series [7] was inactive. Further, the bioavailability at 24 h in the series “in vivo [4]” came to 43.7%. For the same compound, the Drug metabolism entry in series [5] was “metabolite_detected”. Further, the AUC at 336 h in the series “in vivo [6]” turned out to be 38200 ng·h/mL; in the series “in vivo [16]”, 151000 ng·h/mL. The same compound displayed an AUC(0-inf) in [10] of 8220 ng·h/mL. Besides, in series [12], the Vd was 0.834 L/kg. Further, the peak level in “in vivo [13]” (Cmax at 336 h) was 4210 ng/mL. The fraction unbound at 6 h, 10 µM in series [14] was 0.0004. Also, the outcome in series [15] and in [19] was Active. Besides, the microsomal CLint at 1 µM in series [17] was determined as 38 µL/min/mg. The half-life at 24 h in series [18] was 2.86 h.
